Data from publication PMC12892976, “Alkylation-based optimization of antifungal FPPS inhibitors yields a potent, broad-spectrum lipophilic zoledronate derivative” (mBio, 2025).

Legend:
[1] = system: Trichophyton interdigitale; assay: checkerboard drug interaction (FICI, MICc); conditions: with VOR;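 also: simplified diagonal checkerboard screen pairing antifungals with FPPS inhibitors, FICI values calculated under the Loewe additivity model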
Protocol: (§1) Drug interactions between antifungals and FPPS inhibitors were investigated using a simplified checkerboard diagonal screening method ([45]). […] FICIs were determined according to the Loewe additivity model ([17]).

Rhizopus oryzae = assay: checkerboard drug interaction (FICI, MICc); assay type: cell-based;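 also: simplified diagonal checkerboard screen pairing antifungals with FPPS inhibitors, FICI calculated under the Loewe additivity model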
Protocol: as §1

Aspergillus udagawae [2] = assay: MIC broth microdilution (CLSI); assay type: cell-based; conditions: Aspergillus udagawae 8G81
Protocol: (§2) Antifungal susceptibility was determined by broth microdilution according to the CLSI guidelines described in M27-Ed4 ([16]).

[3] = system: Candida albicans biofilms; assay: biofilm XTT reduction assay (SIC80, SFICI); conditions: for SICc / SFICI: Candida albicans
Protocol: (§3) Biofilms of Cryptococcus were seeded in DMEM, and all other species were seeded in RPMI-1640.

Candida auris = assay: MIC broth microdilution (CLSI); assay type: cell-based; conditions: Candida auris CDC-0384
Protocol: as §2

Candida dubliniensis = assay: MIC broth microdilution (CLSI); assay type: cell-based; conditions: Candida dubliniensis M230642
Protocol: as §2

Pichia kudriavzevii = assay: MIC broth microdilution (CLSI); assay type: cell-based; conditions: Pichia kudriavzavii ATCC 6258
Protocol: Antifungal susceptibility was determined by broth microdilution according to the CLSI guidelines described in M27-Ed4 ([16]). […] MFC was determined by back-plating drug-treated cultures from MIC broths onto SDA plates. The MFC was defined as the lowest concentration from which no colonies could be cultured.

Candida parapsilosis = assay: checkerboard drug interaction (FICI, MICc); assay type: cell-based;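 also: simplified diagonal checkerboard screen pairing antifungals with FPPS inhibitors, with FICI computed under the Loewe additivity model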
Protocol: as §1

Microsporum canis = assay: MIC broth microdilution (CLSI); conditions: Microsporum canis R-232
Protocol: as §2

Cryptococcus tetragattii = assay: MIC broth microdilution (CLSI); assay type: cell-based; conditions: Cryptococcus tetragattii WM779
Protocol: as §2

Aspergillus udagawae [4] = assay: checkerboard drug interaction (FICI, MICc); assay type: cell-based;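 also: simplified diagonal checkerboard screen pairing antifungals with FPPS inhibitors, FICI calculated using the Loewe additivity model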
Protocol: as §1

[5] = system: Cryptococcus deneoformans; assay: MIC broth microdilution (CLSI); assay type: cell-based; conditions: Cryptococcus deneoformans JEC21
Protocol: as §2

[6] = system: 38 species of clinically relevant fungi; assay: MIC summary across 38 species of clinically relevant fungi; assay type: cell-based; conditions: 38 fungal species
Excerpt: […]; Table S3). […]. […] […]. […] […].

Candida tropicalis = assay: MIC broth microdilution (CLSI); assay type: cell-based; conditions: Candida tropicalis M230640
Protocol: as §2

Trichophyton soudanense = assay: MIC broth microdilution (CLSI); conditions: Trichophyton soudanense R-167
Protocol: as §2

Fusarium oxysporum = assay: checkerboard drug interaction (FICI, MICc); assay type: cell-based;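 also: simplified diagonal checkerboard screen pairing antifungals with FPPS inhibitors, FICI calculated under the Loewe additivity model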
Protocol: as §1

[7] = system: Trichophyton rubrum biofilms; assay: biofilm XTT reduction assay (SIC80, SFICI); assay type: cell-based; conditions: for SICc / SFICI: Trichophyton rubrum
Protocol: as §3

Aspergillus felis = assay: checkerboard drug interaction (FICI, MICc); assay type: cell-based;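 also: simplified diagonal checkerboard screen pairing antifungals with FPPS inhibitors, FICI calculated under the Loewe additivity model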
Protocol: as §1

[8] = system: Cryptococcus bacillisporus; assay: checkerboard drug interaction (FICI, MICc); assay type: cell-based;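 also: interaction of antifungals with FPPS inhibitors assessed by a simplified diagonal checkerboard screen, with FICI computed under the Loewe additivity model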
Protocol: as §1

CCCCCCCCCCn1cc[n+](CC(O)(P(=O)(O)O)P(=O)(O)O)c1 [10-ZOL, Decyl-zoledronate]
bisphosphonate MICc [1]: 0.5 | FICI (Rhizopus oryzae; 5FC:10-ZOL): ≥4 | FICI (Rhizopus oryzae; CAS:10-ZOL): ≥4 | FICI (Rhizopus oryzae; VOR:10-ZOL): 1 | bisphosphonate MICc (Rhizopus oryzae; with 5FC): 2 | bisphosphonate MICc (Rhizopus oryzae; with AMB): 0.25 | bisphosphonate MICc (Rhizopus oryzae; with CAS): 0.5 | bisphosphonate MICc (Rhizopus oryzae; with FLC): 2 | bisphosphonate MICc (Rhizopus oryzae; with ITR): 2 | bisphosphonate MICc (Rhizopus oryzae; with KET): 2 | bisphosphonate MICc (Rhizopus oryzae; with VOR): 2 | MIC / MEC (Aspergillus udagawae [2]): 1 µg/mL | SICc ([3]; FLC:10-ZOL combination): 32 µg/mL | SFICI ([3]; FLC:10-ZOL): 0.50 | SICc ([3]; ITR:10-ZOL combination): 64 µg/mL | SFICI ([3]; ITR:10-ZOL): 1.00 | SICc ([3]; KET:10-ZOL combination): 64 µg/mL | SFICI ([3]; KET:10-ZOL): 1.00 | SIC80 ([3]; agent alone, Candida albicans SC5314): 128 µg/mL | MIC / MEC (Candida auris): 2 µg/mL | MIC / MEC (Candida dubliniensis): 1 µg/mL | MIC / MEC (Pichia kudriavzevii): 4 µg/mL | FICI (Candida parapsilosis; CAS:10-ZOL): 0.5 | bisphosphonate MICc (Candida parapsilosis; with 5FC): 1 | bisphosphonate MICc (Candida parapsilosis; with AMB): 0.125 | bisphosphonate MICc (Candida parapsilosis; with CAS): 0.25 | bisphosphonate MICc (Candida parapsilosis; with FLC): 0.25 | bisphosphonate MICc (Candida parapsilosis; with ITR): 0.125 | bisphosphonate MICc (Candida parapsilosis; with KET): 0.25 | bisphosphonate MICc (Candida parapsilosis; with VOR): 0.25 | MIC / MEC (Microsporum canis): 1 µg/mL | MIC / MEC (Cryptococcus tetragattii): 0.5 µg/mL | FICI (Aspergillus udagawae [4]; 5FC:10-ZOL): 1 | FICI (Aspergillus udagawae [4]; CAS:10-ZOL): 1 | FICI (Aspergillus udagawae [4]; FLC:10-ZOL): 1.02 | FICI (Aspergillus udagawae [4]; ITR:10-ZOL): 0.5 | FICI (Aspergillus udagawae [4]; VOR:10-ZOL): 1.03 | bisphosphonate MICc (Aspergillus udagawae [4]; with 5FC): 0.5 | bisphosphonate MICc (Aspergillus udagawae [4]; with AMB): 0.5 | bisphosphonate MICc (Aspergillus udagawae [4]; with CAS): 0.5 | bisphosphonate MICc (Aspergillus udagawae [4]; with FLC): 1 | bisphosphonate MICc (Aspergillus udagawae [4]; with ITR): 0.25 | bisphosphonate MICc (Aspergillus udagawae [4]; with KET): 0.5 | bisphosphonate MICc (Aspergillus udagawae [4]; with VOR): 1 | MIC / MEC [5]: 1 µg/mL | overall MIC range [6]: 0.5 to 8 µg/mL | MIC ([6]; read-out: GM MIC): 1.39 ± 1.6 µg/mL | MIC / MEC (Candida tropicalis): 2 µg/mL | MIC / MEC (Trichophyton soudanense): 2 µg/mL | FICI (Fusarium oxysporum; 5FC:10-ZOL): ≥4 | FICI (Fusarium oxysporum; AMB:10-ZOL): 1.03 | FICI (Fusarium oxysporum; CAS:10-ZOL): ≥4 | FICI (Fusarium oxysporum; VOR:10-ZOL): 0.5 | bisphosphonate MICc (Fusarium oxysporum; with 5FC): 4 | bisphosphonate MICc (Fusarium oxysporum; with AMB): 0.25 | bisphosphonate MICc (Fusarium oxysporum; with CAS): 1 | bisphosphonate MICc (Fusarium oxysporum; with FLC): 1 | bisphosphonate MICc (Fusarium oxysporum; with ITR): 1 | bisphosphonate MICc (Fusarium oxysporum; with KET): 1 | bisphosphonate MICc (Fusarium oxysporum; with VOR): 2 | FICI range (biofilm) ([7]; azoles with 10-ZOL, Trichophyton rubrum biofilms): 0.38–0.50 | SICc ([7]; biofilm, FLC:10-ZOL combination): 16 µg/mL | SFICI ([7]; biofilm, FLC:10-ZOL): 0.38 | SICc ([7]; biofilm, ITR:10-ZOL combination): 16 µg/mL | SFICI ([7]; biofilm, ITR:10-ZOL): 0.38 | SICc ([7]; biofilm, KET:10-ZOL combination): 16 µg/mL | SFICI ([7]; biofilm, KET:10-ZOL): 0.50 | SIC80 ([7]; biofilm, agent alone, Trichophyton rubrum 213): 64 µg/mL | FICI (Aspergillus felis; AMB:10-ZOL): 1 | FICI (Aspergillus felis; CAS:10-ZOL): ≥4 | FICI (Aspergillus felis; FLC:10-ZOL): 0.52 | bisphosphonate MICc (Aspergillus felis; with 5FC): 1 | bisphosphonate MICc (Aspergillus felis; with AMB): 1 | bisphosphonate MICc (Aspergillus felis; with CAS): 4 | bisphosphonate MICc (Aspergillus felis; with FLC): 1 | bisphosphonate MICc (Aspergillus felis; with ITR): 1 | bisphosphonate MICc (Aspergillus felis; with KET): 0.25 | bisphosphonate MICc (Aspergillus felis; with VOR): 1 | FICI ([8]; ITR:10-ZOL): 0.61 | bisphosphonate MICc ([8]; with 5FC): 1 | bisphosphonate MICc ([8]; with AMB): 0.125 | bisphosphonate MICc ([8]; with CAS): 1 | bisphosphonate MICc ([8]; with FLC): 0.125 | bisphosphonate MICc ([8]; with ITR): 0.125 | bisphosphonate MICc ([8]; with KET): 0.125 | bisphosphonate MICc ([8]; with VOR): 0.125
